Assay results: patent publication EP1203770A1 (priority 1992, dated 1994)

Biological target: T1, HIV-1 protease (Human immunodeficiency virus type 1 group M subtype B, UniProt P04585)
T1 construct: The protease (or proteinase), consisting of only 99 amino acids, is among the smallest enzymes known
Test: In vitro HIV protease inhibitory assay (HIV Protease FITC Assay)
Type: biochemical
Settings: for inhibition at 0.41 µM: HIV-1 Dose 0.410 uM; for inhibition at 1.23 µM: HIV-1 Dose 1.230 uM; for inhibition at 3.7 µM: HIV-1 Dose 3.700 uM; for inhibition at 11 µM: HIV-1 Dose 11.000 uM; for inhibition at 33 µM: HIV-1 Dose 33.000 uM; for inhibition at 100 µM: HIV-1 Dose 100.000 uM; for Ki: read-out: HIV-1 FITC Ki
Experimental: The HIV protease screening assay is based on a fluorescently labeled substrate which can be resolved from nonlabeled cleavage product using avidin-polystyrene particles, 0.7-0.9 µm. The substrate is biotinylated at the amino terminal arginine and fluorescently labeled with fluorescein isothiocynate (FITC) at the carboxyl terminal lysine. […] Substrate (20 µl of 0.2 µM), sample (10 µl of desired concentraion), and enzyme (10 µl of 0.1 µM) are added to a 96 well pandex plate. The assay is run in 0.1 M sodium acetate buffer at pH 5.5 in the presence of 1.0 M sodium chloride and 0.05% NP-40 and incubated in the dark for one hour at room temperature. Avidin coated polystyrene beads {40 µl of 0.1% (w/v)} are added and the incubation is continued in the dark for an additional half hour. The labeled cleavage product is separated from the unreacted substrate via filtration and is read on the Idexx Screen Machine. The data are analyzed by appropriate computer algorithms to ascertain percent inhibition values.

[1] = read-out: HIV-1 Protease % Inhib

Structure (SMILES): CCC(CC1CCCO1)c1cc(O)c(C(c2ccccc2)C2CC2)c(=O)o1 (stereo not drawn) [Example 56, 3-(Cyclopropyl-phenyl-methyl)-4-hydroxy-6-(1-(tetrahydro-furan-2-ylmethyl)-propyl)-pyran-2-one]
- inhibition at 0.41 µM [1]: 92.6%
- inhibition at 1.23 µM [1]: 97.7%
- inhibition at 3.7 µM [1]: 106%
- inhibition at 11 µM [1]: 117%
- inhibition at 33 µM [1]: 119%
- inhibition at 100 µM [1]: 109%
- Ki: 37 nM

Structure (SMILES): CCC(Cc1cccs1)c1cc(O)c(C(c2ccccc2)C2CC2)c(=O)o1 (stereo not drawn) [Example 57, 3-(Cyclopropyi-phenyl-methyl)-4-hydroxy-6-(1-thiophen-2-ylmethyl-propyl)-pyran-2-one]
- inhibition at 0.41 µM [1]: 76.7%
- inhibition at 1.23 µM [1]: 89.4%
- inhibition at 3.7 µM [1]: 103%
- inhibition at 11 µM [1]: 108%
- inhibition at 33 µM [1]: 114%
- inhibition at 100 µM [1]: 116%
- Ki: 63 nM

Structure (SMILES): CCC(CC1CCOCC1)c1cc(O)c(C(c2ccccc2)C2CC2)c(=O)o1 (stereo not drawn) [Example 58]
- inhibition at 0.41 µM [1]: 74.5%
- inhibition at 1.23 µM [1]: 91.1%
- inhibition at 3.7 µM [1]: 107%
- inhibition at 11 µM [1]: 108%
- inhibition at 33 µM [1]: 115%
- inhibition at 100 µM [1]: 110%
- Ki: 48 nM

Structure (SMILES): CCC(Cc1ccco1)c1cc(O)c(C(c2ccccc2)C2CC2)c(=O)o1 (stereo not drawn) [Example 59, 3-(Cyclopropyl-phenyl-methyl)-6-(1-furan-2-ylmethyl-propyl)4-hydroxy-pyran-2-one]
- inhibition at 0.41 µM [1]: 64.2%
- inhibition at 1.23 µM [1]: 81.2%
- inhibition at 3.7 µM [1]: 104%
- inhibition at 11 µM [1]: 102%
- inhibition at 33 µM [1]: 101%
- inhibition at 100 µM [1]: 105%
- Ki: 58 nM

Structure (SMILES): CCC(CC1OCCO1)c1cc(O)c(C(c2ccccc2)C2CC2)c(=O)o1 (stereo not drawn) [Example 60, 3-(Cyclopropyl-phenyl-methyl)-6-(1-(1,3)dioxolan-2-ylmethyl-propyl)-4-hydroxy-pyran-2-one]
- inhibition at 0.41 µM [1]: 63.2%
- inhibition at 1.23 µM [1]: 86.7%
- inhibition at 3.7 µM [1]: 106%
- inhibition at 11 µM [1]: 113%
- inhibition at 33 µM [1]: 111%
- inhibition at 100 µM [1]: 123%
- Ki: 46 nM

Structure (SMILES): CCC(CC1CCCOC1)c1cc(O)c(C(c2ccccc2)C2CC2)c(=O)o1 (stereo not drawn) [Example 61, 3-(Cyclopropyl-phenyl-methyl)-4-hydroxy-6-(1-(tetrahydro-pyran-3-ylmethyl)-propyl)-pyran-2-one]
- inhibition at 0.41 µM [1]: 100%
- inhibition at 1.23 µM [1]: 101%
- inhibition at 3.7 µM [1]: 108%
- inhibition at 11 µM [1]: 111%
- inhibition at 33 µM [1]: 111%
- inhibition at 100 µM [1]: 103%
- Ki: 13 nM

Structure (SMILES): CCC(CC1CCCCO1)c1cc(O)c(C(c2ccccc2)C2CC2)c(=O)o1 (stereo not drawn) [Example 62, 3-(Cyclopropyl-phenyl-methyl)-4-hydroxy-6-(1-(tetrahydro-pyran-2-ylmethyl)-propyl)-pyran-2-one]
- inhibition at 0.41 µM [1]: 85.7%
- inhibition at 1.23 µM [1]: 95.8%
- inhibition at 3.7 µM [1]: 108%
- inhibition at 11 µM [1]: 116%
- inhibition at 33 µM [1]: 113%
- inhibition at 100 µM [1]: 123%
- Ki: 74 nM

Structure (SMILES): CCC(Cc1ccccn1)c1cc(O)c(C(c2ccccc2)C2CC2)c(=O)o1 (stereo not drawn) [Example 63, 3-(Cyclopropyl-phenyl-methyl)-4-hydroxy-6-(1-pyridin-2-ylmethyl-propyl)-pyran-2-one]
- inhibition at 0.41 µM [1]: 68.5%
- inhibition at 1.23 µM [1]: 95.8%
- inhibition at 3.7 µM [1]: 101%
- inhibition at 11 µM [1]: 110%
- inhibition at 33 µM [1]: 112%
- inhibition at 100 µM [1]: 117%
- Ki: 79 nM

Structure (SMILES): CCC(CCCCl)c1cc(O)c(C(c2ccccc2)C2CC2)c(=O)o1 (stereo not drawn) [Example 64, 6-(4-Chloro-1-ethyl-butyl)-3-(cyclopropyl-phenyl-methyl)-4-hydroxy-pyran-2-one]
- inhibition at 0.123 µM (HIV-1 Dose 0.123 uM, read-out: HIV-1 Protease % Inhib): 13.7%
- inhibition at 0.37 µM (HIV-1 Dose 0.370 uM, read-out: HIV-1 Protease % Inhib): 53.9%
- inhibition at 1.1 µM (HIV-1 Dose 1.100 uM, read-out: HIV-1 Protease % Inhib): 87.7%
- inhibition at 3.3 µM (HIV-1 Dose 3.300 uM, read-out: HIV-1 Protease % Inhib): 103%
- inhibition at 10 µM (HIV-1 Dose 10.000 uM, read-out: HIV-1 Protease % Inhib): 109%
- inhibition at 30 µM (HIV-1 Dose 30.000 uM, read-out: HIV-1 Protease % Inhib): 119%
- Ki: 44 nM
